The source of these data is US20210187014A1 (The Regents of the University of Colorado, a body corporate, priority 2018, published 2021).

“Also recorded” adds a separate entry of the source.

The test system of data set [1] is anemic mouse model (dietary anemia). Kind of data set: Anemic mouse model (dietary anemia), Ent in drinking water. The format is in vivo. The following applies: male mice on iron-deficient diet, two weeks. The protocol: The inventors fed 3-week old male mice an iron-deficient diet (IDD) (or control diet) for 5 weeks to induce anemia. They were then fed IDD +/− Ent added to the drinking water for two more weeks. Fresh dilutions of Ent in water were provided once per week. As generally shown in FIG. 21, mice continuously fed the iron-adequate control diet (CD) were included as the control. Hemoglobin level was measured by a Hemavet Blood Analyzer. Mean value±SD is shown.

Data set [2] concerns C. elegans smf-3/DMT1 mutant. Kind of data set: Growth of iron-deficient C. elegans smf-3/DMT1(-) mutant with iron chelator 2,2'-bipyridyl. The format is in vivo. As for the experimental part: FIG. 26. […] All tests were done on a smf-3/DMT1(-) mutant strain in a culture media where an iron chelator (2,2′-bipyridyl) was added to reduce the environmental iron level (FIG. 26A). […] This growth delay was rescued by supplementation with Ent, scored as the percentage of the population at the indicated growth stage. […] The entP,fepA: E. coli mutant cannot synthesize or utilize Enterobactin.
SMF-3/DMT1 is a conserved divalent metal transporter that transports iron into intestinal cells. The smf-3/DMT1 mutant has been established as an iron deficiency model in C. elegans. These mutants have defective iron uptake that results in iron deficiency (Romney et al 2011) and delayed growth under iron-poor growth conditions created by addition of an iron chelator (2,2′-bipyridyl) to the culture media (Raj an et al 2019).
To determine if the Enterobactin supplementation was benefiting the worm directly or benefiting the worm through an E. coli-dependent mechanism, the test was repeated using an E. coli double mutant that cannot synthesize or utilize Ent (entP,fepk).

The subject of data set [3] is mitochondria. The data set is described as follows: In vitro mitochondrial iron uptake assay, mitochondria purified from worms (55Fe). The following applies: purified mitochondria incubated with 55FeCl3 +/- Ent. The format is biochemical, C. elegans. The protocol: Mitochondrial iron uptake assays. For the in vitro mitochondrial iron uptake assay, the present inventors modified a published procedure for analysis of mammalian cells (Devireddy et al., 2010). […] The samples were incubated for 4 hours at room temperature, and the amount of 55Fe in lysed mitochondria was determined by liquid scintillation.

In data set [4] the test system is succinate dehydrogenase. The data set is described as follows: Succinate dehydrogenase enzymatic activity in worms +/- Ent. Format: in vivo, C. elegans. The following applies: worms fed Ent-deficient food. The protocol: Enzymatic activity. Succinate Dehydrogenase (MAK197; Sigma) and aconitase (MAK051; Sigma) enzymatic activity were measured using the kits according to the manufacturer's protocol. […] After 48 hours culturing, worms were lysed in ice-cold conditions using the lysis buffer provided in the kit, supplemented with […]. Equal amounts of protein were used for the enzymatic activity assay.

For data set [5], the target named is T1, ATP5A1 (Homo sapiens, UniProt P25705).
T1 construct: His
The data set is described as follows: 55FeCl3 +/- Ent in HEK293T cell lysates, ATP5A1 immunoprecipitation. The format is binding.

Data set [6] concerns C. elegans. The data set is described as follows: Siderophore toxicity test: worm growth and mitochondrial morphology (mtGFP). Format: in vivo. The following applies: in vivo. From the text: FIG. 8. Bacterial enterobactin promotes C. elegans development. […] (8E) The entA- and entF-mutant E. coli strains colonized the host gut as efficiently as the parental wild-type strain. (FIG. 8F) Cartoon diagram of feeding condition, microscope images and bar graph showing that neither pyoverdine nor ferrichrome caused obvious growth defects in worms fed heat-killed food plus wild-type, live E. coli. (FIG. 8G) Fluorescence microscopy of worms containing mtGFP under the same feeding condition as in (FIG. 8F). […] “n” =number of worms scored. Data are represented as mean±SEM. ***P<0.0001.

For data set [7], the system named is HEK293 cells. The data set is described as follows: Cellular iron level by Calcein AM fluorescence in HEK293 cells +/- iron chelator DFO. Format: cell-based, human. As for the experimental part:
Here, a similar test was done in human HEK293 cells. […] The present inventors then created a low-iron condition by adding an iron chelator, Deferoxamine (DFO) to the medium (FIG. 18A). […] The assay was also performed using mouse intestinal epithelial (MODE-K) cells.

The subject of data set [8] is whole worm lysates. The data set is described as follows: Affinity chromatography with immobilized Ent and mass spectrometry to identify Ent-binding proteins. Set-up: species or system C. elegans. The following applies: two independent experiments. The protocol:
CTL-2 is a homolog of catalases that are known to bind iron. ATP-1 is the a-subunit of the mitochondrial ATP synthase that is not known for a role in iron biology (Junge and Nelson, 2015).
Isolation of Enterobactin-binding proteins by biotin-IP and LC-MS. Total proteins were extracted from mixed stage worms and then pre-cleaned three times by adding 100 ul Dynabeads® M-280 Streptavidin. Equal volumes of these total protein extracts were then separated to two tubes. Biotin-Ent (5 ug) was added into one tube for IP and Biotin alone (5 ug) was added to another tube as the control, both were incubated overnight at 4° C. After incubating with Dynabeads® M-280 Streptavidin for 2 hours, the beads were washed at least 3 times by 1mL PBS. PBS was then removed from the beads and 200 uL 0.1 M ammonium bicarbonate (ABC)/0.001% deoxycholic acid (DCA) was added. The samples were reduced using 5 mM (final) TCEP at 60° C. for 30 min and alkylated using 15 mM iodoacetamide at room temperature for 20 min. 0.5 ug of trypsin was added to each sample and incubated overnight. The samples were then acidified using 7 uL of formic acid. DCA was removed from the samples by phasetransfer using ethyl acetate. The samples were desalted using a Pierce C18 spin column, and dried using a speed vac. […]

For data set [9], the target named is T1, ATP5A1. The data set is described as follows: Biotin-Ent binding to ATP5A1 (pulldown from HEK293T cells and in vitro binding assay). Particulars: excess, free Ent. An excerpt:
Sequence alignment indicates 78% identity between the ATP synthase a-subunits from C. elegans (ATP-1, Wormbase; SEQ ID NO. 7) and humans (ATP5A1, NCBI; SEQ ID NO. 8) (FIG. 11D). […] To test if this Ent-ATP-1 function is conserved in mammals, the present inventors repeated the prior described biotin-Ent pulldown assay (FIG. 3A) using total protein extracts from human HEK293T cells cultured +/− Biotin-Ent.
In vitro binding assay. (a) Ent-biotin pull-down of total proteins: Ent-biotin and streptavidin beads were used to pull down interacting proteins from worm total protein extracts (same method as that in initial screen for Ent-binding proteins). Western blots were performed to detect ATP-1 (Thermo Fisher 43-9800). […] The assay was then quenched with a standard 5×SDS-PAGE_loading buffer (reducing). Proteins were separated by SDS-PAGE and transferred to_nitrocellulose membranes. The membranes were blocked for 1 h with 5% BSA in Trisbuffered saline (TBS) with 0.1% Tween 20 (TBST) at room temperature, followed by incubation for 1 h with horseradish peroxidase streptavidin (Cell Signaling_Technology,3999S) in TBST. After four washes with changes every 15 min in TBST, the_biotinylated proteins were visualized by enhanced chemiluminescence (GE Healthcare,_RPN2232). […] After IP, the amount of 55Fe was determined by liquid scintillation.

T1 sequence (P25705 44-553): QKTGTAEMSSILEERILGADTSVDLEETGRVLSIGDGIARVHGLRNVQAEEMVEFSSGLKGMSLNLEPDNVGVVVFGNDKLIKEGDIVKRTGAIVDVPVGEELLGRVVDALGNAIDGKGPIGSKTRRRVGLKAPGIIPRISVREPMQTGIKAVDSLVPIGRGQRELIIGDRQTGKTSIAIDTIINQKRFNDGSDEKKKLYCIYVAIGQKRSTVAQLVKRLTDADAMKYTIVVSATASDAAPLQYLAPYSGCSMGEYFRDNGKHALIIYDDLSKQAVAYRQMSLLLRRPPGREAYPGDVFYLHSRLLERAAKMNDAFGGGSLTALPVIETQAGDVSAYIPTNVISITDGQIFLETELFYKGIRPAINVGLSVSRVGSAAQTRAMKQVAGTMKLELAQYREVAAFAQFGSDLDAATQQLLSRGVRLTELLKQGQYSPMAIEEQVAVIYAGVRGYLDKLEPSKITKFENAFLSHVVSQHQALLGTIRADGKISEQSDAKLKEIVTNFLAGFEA

On to `O=C(N[C@H]1COC(=O)[C@@H](NC(=O)c2cccc(O)c2O)COC(=O)[C@@H](NC(=O)c2cccc(O)c2O)COC1=O)c1cccc(O)c1O` [Ent, enterobactin], for which the hemoglobin level result in data set [1] was “significantly improved”. In data set [2] (E. coli double mutant that cannot synthesize or utilize Ent), the “growth of smf-3(-) mutants” value is listed as “rescued the growth of smf-3(-) mutants to adulthood”. Further, in data set [2] (iron chelator 2,2'-bipyridyl in media), the “growth of smf-3(-) mutants” value is listed as “rescued the growth of smf-3(-) mutants to adulthood”. For the same compound, the “increase in 55Fe level in mitochondria” value in data set [3] is on record as 10 fold. The “activity of succinate dehydrogenase” value in data set [4] is listed as “significantly increased”. Moreover, the “level of 55Fe in ATP5A1-IP samples” value in [5] was “increased”. In addition, the “mitochondrial morphology (mtGFP)” value in data set [6] was “did not disrupt mitochondrial morphology”. Moreover, in data set [7] (medium with DFO, Ent 1.5 uM), the “decrease in Calcein AM fluorescence with Ent addition” value was 45% and the iron level recovery result is on record as “mostly recovered; also recorded: largely recovered”. Moreover, the “increase of cellular iron uptake” value in [7] (standard culture medium) is recorded as about 33%. The “candidate Ent-binding proteins captured” value in [8] is “CTL-2 and ATP-1”. In data set [9], the “competition of biotin-Ent binding to ATP5A1” value is recorded as “effectively competed away”.
